# Results from patent US20180118699A1, “SK AND IK CHANNEL AGONISTS FOR TREATMENT OF HEART FAILURE” (THE TRUSTEES OF COLUMBIA UNIVERSITY IN THE CITY OF NEW YORK, priority 2015, published 2018).
# Where two headings read alike, the source gives them in different places.
# Legend:
# [1] = IV bolus in mouse with systolic heart failure, left ventricular pressure-volume recording; format: in vivo; conditions: IV bolus 3 mg/kg, wildtype mouse with heart failure (FAC 38%)
# Protocol: (§1) FIG. 22 depicts data of a wildtype mouse with heart failure (FAC 38%) given an IV bolus of SKA-31 (3 mg/kg) through the left internal jugular vein during simultaneous recording of left ventricular pressure and volume using a Milar conductance catheter inserted through the right carotid artery.
# as §1, with “In this experiment,” for “FIG. 22 depicts data of”, “38%) was” for “38%)”, “artery. (FIG. 22)” for “artery.”
# BK channel deficient mice and wildtype littermates developed an ischemic cardiomyopathy after surgical ligation of the left anterior descending coronary artery. Systolic heart failure was confirmed six weeks later by noting a fractional area of change (FAC) of 40% or lower on 2D echocardiography (Visualsonics Vevo 2100). […] Continuous LV pressure and volume measurements were recorded (MPVS Ultra by Milar with PowerLab 4/35 and LabChart by ADInstruments). After stable baseline LV measurements were recorded, vehicle (Cremophor EL made by Calbiochem) was infused intravenously into the cannulated internal jugular vein as a single bolus in the same volume later used to deliver an intravenous bolus of SKA-31 (Tocris) at 3 mg/kg. […]
# SK channels = conditions: cited from earlier work
# [2] = rats; cited from earlier work
# [3] = mice; cited from earlier work
# [4] = cited from earlier work
# [5] = cited from earlier work; for lowering of mean arterial pressure: 30 mg/kg
# [6] = test system: mesenteric resistance vessels; assay: Dilation of cannulated mesenteric resistance vessels
# Protocol: Vessels were mounted onto cannulas and equilibrated at 80 mm Hg. […] The vessels were continuously constricted with 1 μM phenylephrine. […] At the conclusion of the experiment, the vessels were superfused in a Ca^2+-free solution to determine maximal dilation. Data shown are mean+s.e.m., relative to maximal dilation determined in Ca^2+-free solution. N=4.
# BK channels [7] = biological target: T1, BK channels (Mus musculus, UniProt Q08460); assay: Myogenic tone of pressurized mesenteric arteries with BK channel blocker; set-up: species or system mice; conditions: for increase of constriction: 120 mm Hg
# T1 construct: from tissue; host or cells: third-order mesenteric resistance arteries of mice (sham and heart failure)
# Protocol: FIG. 11A is a graph showing the effect of paxilline on myogenic tone measured at 120 mm Hg. Constriction induced by paxilline was calculated as the difference between myogenic tone (%) pre- and post-paxilline. Mean+s.e.m. No heart failure (no HF): N=6 vessels; heart failure (HF): N=5 vessels. ** P<0.01, Student's t test. FIG. 11B is a graph showing that myogenic tone is equivalent in paxilline-treated vessels from control mice and mice with heart failure. Mean+s.e.m. No HF: N=6 vessels; HF: N=5 vessels.
# If HF alters myogenic tone by reducing BK channel expression and currents, then the effect of paxilline should be reduced. […] Inhibiting BK channels with paxilline in sham-treated (no HF) control mice caused an increase in myogenic tone, approximating the increased myogenic tone of vessels isolated from HF mice (see FIG. 11B).
# human KCNN3 (SK3) = biological target: T2, human KCNN3 (SK3) (Homo sapiens, UniProt P0DP23+Q9UGI6); assay: Whole-cell patch clamp of KCa potassium channel activator activity in transfected HEK293 cells; format: cell-based; conditions: HEK293 SK3 whole-cell currents
# T2 construct: GFP; expressed in transfected cells; host or cells: HEK293
# From the text: Currents were activated by 200 msec depolarizing ramps between −120 mV and +30 mV, from a holding potential of −90 mV, and then deactivated by repolarization to the holding potential. […] Colored bars indicate application of the XX-03-64 and XX-03-56 agonists.
# Currents were activated by 200 msec depolarizing ramps between −120 mV and +30 mV, from a holding potential of −90 mV, and then deactivated by repolarization to the holding potential. Voltage ramps were applied every 5 seconds. The bath solution was 140 mM NaCl, 4 mM KCl, 0.1 mM CaCl2, 3 mM Mg Cl2, 10 mM HEPES (pH 7.4) and the pipette solution was 150 mM KCl, 5 mM TES (pH 7.2), 2 mM HEDTA, and 1 μM free Ca^2+. The free Ca^2+ concentration was calculated using the Max Chelator program and confirmed using a Ca^2+ electrode (Orion). Agonists were superfused in the bath solution.
# SK3 and IK1 channels = assay: Electrophysiology of freshly isolated mesenteric endothelial cells; format: cell-based, mice
# From the text: FIGS. 18A-18D collectively are graphs showing electrophysiological characterization of SK channels in freshly isolated mesenteric endothelial cells.
# Endothelial cells were isolated from third-order mesenteric arteries of mice using enzymatic digestion followed by labeling the endothelial cells with CD34 antibody-labeled magnetic beads, collecting them using a magnet and then releasing them from the beads by competition. To measure both SK3 and IK1 currents, the cells were dialyzed with KCl-solution containing 3 μM free Ca^2+ and currents elicited using voltage ramps and by the activator NS-309 (see FIGS. 18A-18B).
# [8] = cited from earlier work; remark: listed apart in the source
# BK channels [9] = biological target: T1, BK channels; assay: Whole cell K+ currents in freshly isolated mesenteric VSM cells; format: cell-based, mice; conditions: control VSM cells, 2 μM Ang II
# Protocol: Whole cell K^+ currents at baseline (black trace) and after exposure to 1 μM paxilline (red trace in FIG. 14A) or 2 μM Ang II (blue trace in FIG. 14B). The intrapipette solution contained 9 μM Ca^2+.
# Conversely, Ang II (2 μM) or phenylephrine (10 μM) may differentially modulate channel function in VSM cells isolated from HF mice. Ang II inhibits BK channel function through its effects on PKC, c-Src and Nox (Lu et al. 2010). Ang II causes less inhibition if BK channels are already modified by PKC, c-Src or Nox pathways, as compared to the effect on BK channels from control VSM cells, in which Ang II suppressed BK current by 50% (see FIG. 14B).
# Two determinants of BK activity are used: STOCs and whole-cell current density. BK currents are a very large fraction of the total K^+ currents in freshly isolated mesenteric VSM cells (see FIG. 14A). […] PKCα and PKCδ may be the relevant PKC isoforms, which are further delineated using specific inhibitors.
# [10] = two hours after IP injection of 100 μg (5 μg/g); cited from earlier work
# [11] = mesenteric arteries from HF mice
# [12] = mesenteric arteries from mice without HF
# T1 sequence (Q08460 whole entry): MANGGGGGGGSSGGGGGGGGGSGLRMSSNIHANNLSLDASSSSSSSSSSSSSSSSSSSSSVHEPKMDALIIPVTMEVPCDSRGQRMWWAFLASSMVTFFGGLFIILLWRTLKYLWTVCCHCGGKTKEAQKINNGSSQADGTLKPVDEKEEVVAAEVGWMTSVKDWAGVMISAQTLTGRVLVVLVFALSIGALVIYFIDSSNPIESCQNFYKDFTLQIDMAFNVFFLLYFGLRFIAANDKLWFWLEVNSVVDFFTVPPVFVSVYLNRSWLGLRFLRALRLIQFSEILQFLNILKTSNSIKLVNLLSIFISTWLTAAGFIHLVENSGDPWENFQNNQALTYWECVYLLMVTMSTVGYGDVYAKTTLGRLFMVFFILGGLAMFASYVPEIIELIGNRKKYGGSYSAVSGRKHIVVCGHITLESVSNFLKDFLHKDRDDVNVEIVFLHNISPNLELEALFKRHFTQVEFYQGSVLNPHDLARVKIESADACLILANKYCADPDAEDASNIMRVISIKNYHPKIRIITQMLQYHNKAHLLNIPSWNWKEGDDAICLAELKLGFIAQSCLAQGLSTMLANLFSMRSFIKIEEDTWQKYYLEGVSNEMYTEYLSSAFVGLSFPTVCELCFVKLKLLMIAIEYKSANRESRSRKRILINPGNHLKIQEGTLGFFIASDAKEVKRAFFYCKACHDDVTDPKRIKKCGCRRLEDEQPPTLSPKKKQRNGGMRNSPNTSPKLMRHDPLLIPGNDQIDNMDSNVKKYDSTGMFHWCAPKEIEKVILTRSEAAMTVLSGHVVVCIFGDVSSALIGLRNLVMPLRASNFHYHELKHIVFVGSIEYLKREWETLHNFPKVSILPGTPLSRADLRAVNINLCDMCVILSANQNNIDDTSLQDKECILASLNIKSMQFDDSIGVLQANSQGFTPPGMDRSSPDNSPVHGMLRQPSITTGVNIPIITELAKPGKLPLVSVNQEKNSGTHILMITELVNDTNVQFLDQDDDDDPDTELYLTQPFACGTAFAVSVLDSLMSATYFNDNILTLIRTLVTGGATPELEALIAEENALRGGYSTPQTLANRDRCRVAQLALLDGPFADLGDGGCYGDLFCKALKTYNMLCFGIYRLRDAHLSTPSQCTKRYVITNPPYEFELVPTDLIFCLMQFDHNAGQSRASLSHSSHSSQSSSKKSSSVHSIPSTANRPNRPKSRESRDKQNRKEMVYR
# T1 sequence (Q8CAE3 whole entry partner): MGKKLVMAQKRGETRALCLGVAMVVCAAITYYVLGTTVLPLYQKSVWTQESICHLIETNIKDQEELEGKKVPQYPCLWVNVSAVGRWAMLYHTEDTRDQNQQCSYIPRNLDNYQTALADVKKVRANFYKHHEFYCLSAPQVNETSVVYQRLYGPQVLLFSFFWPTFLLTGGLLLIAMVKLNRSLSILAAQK
compound,measurement,setting,value
"Nc1nc2c(ccc3ccccc32)s1 [XX-03-58, naphtha[1,2-d]thiazol-2-ylamine]",cardiac work,[1],improves cardiac work
same,EC50 of SK channel activation,SK channels,low μM range
same,acute toxicity,[2],no acute toxicity
same,acute toxicity,[3],no acute toxicity
same,free plasma level,"[4]; 10 mg/kg IP, 24 h",300 nM
same,plasma concentration,"[4]; 10 mg/kg IP, mice, 2 h",5500 nM
same,plasma concentration,"[4]; 10 mg/kg IP, mice, 4 h",1400 nM
same,plasma concentration,"[4]; 10 mg/kg IP, mice, 24 h",500 nM
same,free in plasma,[4]; mice,61%
same,plasma protein-bound,[4]; mice,39%
same,lowering of mean arterial pressure,[5]; mice with hypertension,12 mm Hg
same,lowering of mean arterial pressure,[5]; normal mice,6 mm Hg
same,lowering of blood pressure,"[5]; single IP injection 10 mg/kg, at 24 h",4 mm Hg
same,dilation of vessels,"[6]; intraluminal 250 nM or 1 μM, vessels of control mice and mice with HF",effectively dilated the vessels
same,dilation of vessels,[6]; phenylephrine-constricted vessels of BK β1 null mice,caused dilatation of vessels from β1 null mice to a similar extent as vessels from WT mice
CC(C)(O)[C@H]1O[C@H]2CC[C@@]3(C)[C@@](O)(CC[C@H]4Cc5c([nH]c6ccccc56)[C@@]43C)C2=CC1=O [paxilline],relative increase in myogenic tone,BK channels [7]; [11],3%
same,increase of constriction,BK channels [7]; [11],0.9%
same,relative increase in myogenic tone,BK channels [7]; [12],51.9%
same,increase of constriction,BK channels [7]; [12],10.9%
Cc1ccc2ccc3sc(N)nc3c2c1 [XX-03-64],Note: rank of activity,human KCNN3 (SK3),least active
COc1ccc2c(ccc3sc(N)nc32)c1 [XX-03-52],Note: rank of activity,human KCNN3 (SK3),2nd most active
NS-309,activation of SK/IK channels,SK3 and IK1 channels; 5 μM NS-309,reversible NS-309 (5 μM) activation of SK/IK channels
same,endothelial cell membrane potential,SK3 and IK1 channels; NS309,caused hyperpolarization of the endothelial cell membrane potential
same,half-life,[8],extremely short half-life
C[N+](C)(C)CCOC(N)=O [carbachol],endothelial cell membrane potential,SK3 and IK1 channels; carbachol 2 μM,hyperpolarization of endothelial cell membrane potential
Nc1nc2c(ccc3cc(Cl)ccc32)s1 [XX-03-56],Note: rank of activity,human KCNN3 (SK3),Most active
"angiotensin II (DRVYIHPF; Angiotensin-2; UniProt P01019 25-32, looked up) [Ang II, circulating angiotensin II]",suppression of BK current,BK channels [9],50%
"CC(=O)c1c(O)c(C)c(O)c(Cc2c(O)c3c(c(C(=O)/C=C/c4ccccc4)c2O)OC(C)(C)C=C3)c1O [rottlerin, Rottlerin]",plasma level,[10],2900 ng/mL
Clc1ccccc1C(c1ccccc1)(c1ccccc1)n1cccn1 [TRAM-34],effect on SKA-31 (1 μM)-mediated vasodilation,"[6]; intraluminal 1 μM TRAM-34 and 100 nM apamin together, phenylephrine-constricted vessels",prevented
